Data from US11318141B2, “Methods and compositions related to STK1-targeted small molecules as antibiotic resistance breakers” (Ohio State Innovation Foundation, priority 2017, dated 2022).

What was measured:
[1] = Tolerability in mice treated with compound only; type: in vivo, CD-1 mice; details: 5 mg/kg i.p., ten-day observation
Method: The virulence potential of the wild-type S. aureus MW2 wild-type and corresponding MW2ΔSTK1 and MW2ΔSTP1 mutants was assessed using the mouse-septicemia model. CD-1 mice (5 weeks old, 20-22 g. Charles River Laboratories, ten female mice/group and housed in a group of 5 mice/cage) were lightly anesthetized with isoflurane and injected retro-orbitally with the S. aureus MW2 or isogenic MW2Δstk1 mutant (4×10^8 CFU/0.1 ml of PBS). […] For therapeutic studies, the animals were first challenged with MW2-WT strain as described above and subsequently administered with antibiotic and/or small molecule compounds. The latter was started 4 h after the challenge and subsequently 12 h apart for 4 days post infection. Thus, Inh2-B1 (5 mg/kg body weight in 0.3 ml vehicle buffer), Ceftriaxone (10 and 25 mg/kg body weight in 0.3 ml vehicle buffer). […] Data were combined, and percentage survival in each group was statistically evaluated by the Log-Rank test (Kaplan-Meier) using the GraphPad Prism 6 software. […] On Day 3 P.I., 3-6 mice from different groups receiving treatment with a single antibiotic or combination therapy were euthanized and sacrificed, and kidneys were […] for determining the bacterial load, which was determined by counting the colony forming units in the homogenized tissue in sterile PBS buffer.

S. aureus MW2-WT = test: S. aureus mouse septicemia model, therapeutic study; type: in vivo, CD-1 mice
Method: The virulence potential of the wild-type S. aureus MW2 wild-type and corresponding MW2ΔSTK1 and MW2ΔSTP1 mutants was assessed using the mouse-septicemia model. CD-1 mice (5 weeks old, 20-22 g. Charles River Laboratories, ten female mice/group and housed in a group of 5 mice/cage) were lightly anesthetized with isoflurane and injected retro-orbitally with the S. aureus MW2 or isogenic MW2Δstk1 mutant (4×10^8 CFU/0.1 ml of PBS). […] For therapeutic studies, the animals were first challenged with MW2-WT strain as described above and subsequently administered with antibiotic and/or small molecule compounds. The latter was started 4 h after the challenge and subsequently 12 h apart for 4 days post infection. Thus, Inh2-B1 (5 mg/kg body weight in 0.3 ml vehicle buffer), Ceftriaxone (10 and 25 mg/kg body weight in 0.3 ml vehicle buffer). Cefotaxime (10 mg/kg body weight), combination of Ceftriaxone (10 mg and 25 mg/kg body weight in 0.3 ml vehicle buffer) or Cefotaxime (10 mg/kg body weight) with Inh2-B1 (5 mg/kg body weight in 0.3 ml vehicle buffer), or 0.3 ml of vehicle-buffer (50 mM Tris/HCl, pH 8.8, 1.67% [v/v] DMSO). Early removal and euthanasia criteria were applied to all experimental mice showing penultimate sign(s) of the unrecoverable stage of illness, including ruffled skin with a hunch back, loss of more than 20% of body mass as compared to unchallenged mice receiving mock treatment, dyspnea, and labored gasping. All experiments were performed twice. Data were combined, and percentage survival in each group was statistically evaluated by the Log-Rank test (Kaplan-Meier) using the GraphPad Prism 6 software. P<0.05 was treated as a significant difference. On Day 3 P.I., 3-6 mice from different groups receiving treatment with a single antibiotic or combination therapy were euthanized and sacrificed, and kidneys were […] for determining the bacterial load, which was determined by counting the colony forming units in the homogenized tissue in sterile PBS buffer.

[2] = Stability in serum and body fluid; type: in vitro ADME
[3] = tested on: S. aureus MW2-WT, MW2ΔSTK1 and MW2ΔSTP1 colonies; test: Colony hemolysis pattern on TSA blood agar plates; type: cell-based, Staphylococcus aureus; details: 50 μM Inh2-B1, MW2-WT, MW2ΔSTK1 or MW2ΔSTP1
Source text: See the increased hemolysis around the colonies of the MW2ΔSTK1 mutant and absence of hemolysis around those of MW2ΔSTP1 mutant as depicted in the enlarged portion of certain representative colonies shown under each panel of the strain. A one centimeter bar is included to facilitate the determination of the relative size of colonies and corresponding hemolytic zones around them.

Detroit 562 cells = test: LDH release cytotoxicity assay; type: cell-based, human; details: 1.56-100 μM, 24 h
Method: (§1) Various concentrations (1.56-100 μM) of the small molecule compounds Inh2-B1 were tested for their cytotoxicity by incubating them for 24 h in the cell lines mentioned above. The cytotoxicity of compounds was determined by measuring the activity of lactate dehydrogenase (LDH) released from the damaged cells during incubation. The LDH assay was performed in triplicate wells. At the end of incubation, the plates were lightly centrifuged, and the culture supernatants were examined for the presence of LDH activity using Cytotoxicity Detection Kit (Promega) per the manufacturer's instructions. LDH activity was detected spectrophotometrically (Molecular device, 490 nm) and normalized to the total LDH activity (100%) in cell lysate of the untreated cells. Background value obtained with untreated culture supernatant was subtracted before data evaluation.

BEAS-2B cells = test: LDH release cytotoxicity assay; type: cell-based, human; details: 1.56-100 μM, 24 h
Method: as §1

[4] = tested on: cell wall hydrolase genes in S. aureus MW2-WT; test: qRT-PCR mRNA expression of cell wall hydrolase genes; type: cell-based, Staphylococcus aureus; details: treated MW2-WT vs untreated
Method: The late log phase-grown S. aureus strains MW2 wild-type, and isogenic ΔSTK1 and ΔSTP1 mutant strains, as well as S. aureus MW2 strain treated with 25 μM Inh2-B1 for 4 h, were subjected to lysostaphin treatment to obtain whole cell lysate. Total RNA from the resulting lysate was first extracted by TRIZOL™ (Invitrogen/Thermo) and treated with RNase-free DNaseI. High-quality total RNA (RIN>7.0, and 260/280 and 260/230 ratios >1.8) was then extracted by using RNA purification kit (Norgen, Canada) per manufacturer's instructions and confirmed by an Agilent 2100 Bioanalyzer (Agilent Technologies, Palo Alto, Calif.). The first-strand cDNA from the total RNA was generated, and relative mRNA concentration was quantitated using SYBR Green qRT-PCR master mix and specific primers, using a Light Cycler® 480 real-time PCR machine (Table 2). The results obtained for all samples (three biological replicates each in triplicates) were normalized to corresponding values of 16S rRNA. All results including relative fold-changes in the mRNA expression (mutant vs. wild-type or treated vs. nontreated) for individual genes were analyzed using Exor4 software (Roche Applied Science). Changes in expression ratios by more than 2-fold (up- or down-regulation) were considered as significant.

S. aureus STK1 / STKK1 = test: Solid-phase ATP affinity chromatography, elution of bound kinase by inhibitor, Western blot; type: binding
Method: (§2) An overnight culture of S. aureus MW2 strain was centrifuged, and the resulting bacterial pellet was resuspended in lysostaphin digestion buffer (50 mM Tris/HCl buffer, pH 7.5, containing 5 μg/ml DNAse/RNAse and protease inhibitor cocktail) in 1/10 the volume of the original culture volume. The latter was then subjected to lysostaphin treatment (15 U/ml). The lysostaphin digest was sonicated (5 sec pulse at every 10 sec for 10 min at 50% of 130 W, […]), and the debris free whole cell lysate was obtained after centrifugation (10.000×g, 10 min, 4° C.). […] The column was then washed with ten column volumes of binding buffer. Subsequently, the bound proteins were eluted with the 10-column volume of buffer containing 50 μM Inh-2 and Inh2-B1. S. aureus crude lysate, the last fraction of the column washing step, and eluted fractions were resolved by SDS-PAGE and electroblotted onto a PVDF membrane. […] A similar experiment was performed using S. pyogenes whole cell lysates obtained from phage lysin-digested S. pyogenes M1T1 strain using the anti-SP-STK antibody as described previously using to determine the specificity of the inhibitor for S. aureus STK1.

[5] = tested on: S. pyogenes SP-STK / SP-STKK; test: as above; type: binding; details: purified recombinant protein
Method: as §2

[6] = Inh2-B1 5 mg/kg plus Cefotaxime 10 mg/kg

COC(=O)c1ccc2c(=O)[nH]c3c(C(=O)Nc4ccccc4)sc(=S)n3c2c1 [Inh2-B1, Methyl 5-oxo-3-(phenylcarbamoyl)-1-thioxo-4,5dihydro[1,3]thiazolo[3,4-a]quinazoline-8-carboxylate]
signs of illness in mice treated with only the compound [1]: no morbid signs of illness
survival of mice treated with only the compound [1]: survived all throughout the observation period
number of survived animals at the end of 10 days, Cefotaxime combination compared with Ceftriaxone combination (S. aureus MW2-WT; [6]): significantly low
survival of mice, combination therapy with Cefotaxime (Inh2-B1+CT) (S. aureus MW2-WT; [6]): significantly prolonged the survival of mice
survival, combination therapy with Ceftriaxone (S. aureus MW2-WT; Inh2-B1 5 mg/kg plus Ceftriaxone 10 or 25 mg/kg i.p., ten days): 60%
S. aureus MW2 burden in kidneys (S. aureus MW2-WT; day 3 P.I., combined therapy (Inh2-B1 with Ceftriaxone or Cefotaxime) vs single or no therapy): significantly low
stability in the serum and body fluid, such as peritoneal fluid [2]: remain stable
hemolysis pattern of colonies [3]: did not show any changes in the hemolysis pattern
lysis (LDH release) (Detroit 562 cells): less than 5%
cytotoxicity (LDH release) (BEAS-2B cells): ~15%
expression of cell wall hydrolase-encoding genes [4]: down-regulation of cell wall hydrolase-encoding genes
elution of STK1 bound to ATP-column, whole cell lysate of S. aureus MW2 (S. aureus STK1 / STKK1; eluted with 50 μM inhibitor, anti-STK1 immunoblot): presence of STK1
elution of purified recombinant S. aureus STKK1 from ATP-column (S. aureus STK1 / STKK1; purified recombinant protein): could elute only the S. aureus STKK1 protein
elution of purified recombinant S. pyogenes SP-STKK from ATP-column [5]: not S. pyogenes SP-STKK protein
